Experimental data taken from ChEMBL document CHEMBL1201862, “PubChem BioAssay data set” (2004).
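Following 48 hours of exposure in 96-well plates, responses at five concentrations were used to interpolate endpoints linearly. The concentration for 50% growth inhibition is given as GI50.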 Activity calls are given as the source filed them. Rule as the data show it: active = GI50 up to about 1.1 µM and inactive = higher.

Assays:
Assay in all cases: inhibition of tumour cell growth, NCI panel, 48 h
BT-549 = tested on: BT-549
Hs-578T = tested on: Hs-578T
PC-3 = tested on: PC-3

Structure (SMILES): Nc1nc(O)c(N)c(NCCOCP(=O)(O)O)n1
- GI50 (BT-549): > 74.8 µM (inactive)
- GI50 (Hs-578T): > 100 µM (inactive)
- GI50 (PC-3): > 100 µM (inactive)

Structure (SMILES): CC1(C)COC(c2ccc(C(=O)c3ccc(Cl)cc3)cc2)=N1
- GI50 (Hs-578T): > 100 µM (inactive)
- GI50 (PC-3): > 100 µM (inactive)

Structure (SMILES): NS(=O)(=O)c1ccc(NC(=O)Nc2cccc3ccccc23)cc1
- GI50 (BT-549): 87.1 µM (inactive)
- GI50 (Hs-578T): 42.2 µM (inactive)
- GI50 (PC-3): 20.2 µM (inactive)

Structure (SMILES): O=C1NNC(=O)c2ccccc2SSc2ccccc2C(=O)NNC(=O)c2ccccc2SSc2ccccc21
- GI50 (BT-549): 11.5 µM (inactive)
- GI50 (Hs-578T): > 50 µM (inactive)
- GI50 (PC-3): 19.5 µM (inactive)

Structure (SMILES): O=C(O)c1nnsc1-c1csnn1
- GI50 (BT-549): > 100 µM (inactive)
- GI50 (Hs-578T): > 100 µM (inactive)
- GI50 (PC-3): > 100 µM (inactive)

Structure (SMILES): COc1cccc2c3cccc(OC)c3c3[nH]cnc3c12
- GI50 (BT-549): 16.1 µM (inactive)
- GI50 (Hs-578T): 0.394 µM (active)
- GI50 (PC-3): 2.03 µM (inactive)

Structure (SMILES): C=C1[C@H](OCC(C)C)[C@@H](OC(=O)C(C)CC)[C@@H](O)C(C)(C)/C=C/[C@H](C)C(=O)[C@@]2(O)C[C@H](C)[C@H](O)[C@@H]2[C@H]1OC(=O)C(C)CC (stereo not given in full)
- GI50 (BT-549): 4.63 µM (inactive)
- GI50 (Hs-578T): 1.66 µM (inactive)
- GI50 (PC-3): 2.82 µM (inactive)

Structure (SMILES): O=C(Oc1ccc(OC(Oc2ccccc2)c2ccccc2)cc1)c1ccccc1 (stereo not given)
- GI50 (BT-549): 26.5 µM (inactive)
- GI50 (Hs-578T): > 31.6 µM (inactive)
- GI50 (PC-3): 25.6 µM (inactive)

Structure (SMILES): O=[N+]([O-])c1ccc2nc(=S)[nH]n2c1
- GI50 (BT-549): > 100 µM (inactive)
- GI50 (Hs-578T): > 100 µM (inactive)

Structure (SMILES): O=C1C(Cl)=C(N[C@@H](Cc2ccccc2)C(=O)OCc2ccccc2)C(=O)c2c(O)ccc(O)c21
- GI50 (BT-549): > 10 µM (inactive)
- GI50 (Hs-578T): 4.89 µM (inactive)
- GI50 (PC-3): 3.72 µM (inactive)

Structure (SMILES): C=CCC1(OCc2ccccc2)C(=O)C(=O)OC1C1COC(C)(C)O1 (stereo not given)
- GI50 (BT-549): > 100 µM (inactive)
- GI50 (Hs-578T): > 100 µM (inactive)
- GI50 (PC-3): > 100 µM (inactive)

Structure (SMILES): COC(=O)c1sc2c(=O)c(C(=O)OC)c(C(=O)OC)sc2c(=O)c1C(=O)OC
- GI50 (BT-549): > 100 µM (inactive)
- GI50 (Hs-578T): > 64.1 µM (inactive)
- GI50 (PC-3): > 100 µM (inactive)

Structure (SMILES): COc1cc2c(cc1OCCCCCOc1cc3c(cc1OC)C(=O)N1CCC[C@H]1CN3)N=C[C@@H]1CCCN1C2=O
- GI50 (BT-549): 2.66 µM (inactive)
- GI50 (Hs-578T): 6.75 µM (inactive)
- GI50 (PC-3): 10.1 µM (inactive)

Structure (SMILES): Cc1cn(CC2=NCCCN2)c(=O)[nH]c1=O
- GI50 (BT-549): > 100 µM (inactive)
- GI50 (Hs-578T): > 100 µM (inactive)
- GI50 (PC-3): > 100 µM (inactive)

Structure (SMILES): O=C(NCc1cccnc1)NCc1cccnc1
- GI50 (BT-549): > 100 µM (inactive)
- GI50 (Hs-578T): > 100 µM (inactive)
- GI50 (PC-3): > 100 µM (inactive)

Structure (SMILES): COC1C(O)C(O[C@H]2CC[C@@]3(C)C(CC[C@@H]4[C@@H]3CC[C@]3(C)[C@@H](C(C)OC5OC(CO)C(O)C(O)C5O)CC[C@]43O)C2)OC(C)C1OC1OC(CO)C(O)C(O)C1O (stereo not given in full)
- GI50 (BT-549): > 100 µM (inactive)
- GI50 (Hs-578T): > 100 µM (inactive)
- GI50 (PC-3): > 100 µM (inactive)

Structure (SMILES): COc1cc(OC)c(C/C=C/c2ccccc2)cc1O
- GI50 (BT-549): 16.1 µM (inactive)
- GI50 (Hs-578T): 16.8 µM (inactive)
- GI50 (PC-3): 17.1 µM (inactive)

Structure (SMILES): CC1(C)[C@H]2CC[C@@]13C(=O)N1C(=O)O[C@@H]([C@H]1Cl)C(Cl)(COCc1ccccc1)C(=O)OCCO[C@H]3C2 (stereo not given in full)
- GI50 (BT-549): 61.2 µM (inactive)
- GI50 (Hs-578T): 88.1 µM (inactive)
- GI50 (PC-3): 38.2 µM (inactive)

Structure (SMILES): COc1ccc(OC)c2c1ccc1c(C)c3ccccc3c(C)c12
- GI50 (BT-549): > 100 µM (inactive)
- GI50 (PC-3): > 100 µM (inactive)

Structure (SMILES): Nc1ncn2c(n1)nc1ccccc12
- GI50 (BT-549): > 100 µM (inactive)
- GI50 (Hs-578T): > 100 µM (inactive)
- GI50 (PC-3): > 100 µM (inactive)

Structure (SMILES): S=C(Nc1ccccc1)N(Cc1ccccc1)c1ccccc1
- GI50 (BT-549): 0.34 µM (active)
- GI50 (Hs-578T): 20 µM (inactive)

Structure (SMILES): CC1(C)C(O)c2ccccc2OC1N1CCN(C2Oc3ccccc3C(O)C2(C)C)CC1 (stereo not given)
- GI50 (Hs-578T): > 100 µM (inactive)
- GI50 (PC-3): > 100 µM (inactive)

Structure (SMILES): Cc1ccc(C(=O)C2=CN=C3C(=O)N(c4ccccc4)N(C)C3(C)C2=N)cc1 (stereo not given)
- GI50 (BT-549): > 100 µM (inactive)
- GI50 (PC-3): > 100 µM (inactive)

Structure (SMILES): CC(C)(C)OC(=O)NC1CCCC1C(=O)C1=CCCC1 (stereo not given)
- GI50 (BT-549): > 100 µM (inactive)
- GI50 (Hs-578T): 44 µM (inactive)
- GI50 (PC-3): > 100 µM (inactive)

Structure (SMILES): CC1(C)O[C@@H]2[C@@H](COC(C)(C)O[C@H]2C2SCCCS2)O1
- GI50 (PC-3): > 100 µM (inactive)

Structure (SMILES): CCOC(=O)/C(=C\NC[C@@H](C)O)c1nc2ccccc2[nH]1
- GI50 (BT-549): > 100 µM (inactive)

Structure (SMILES): O=c1[nH]c(-c2ccccc2)nc2c1sc1nc3ccccc3n12
- GI50 (BT-549): > 61 µM (inactive)
- GI50 (Hs-578T): 26.7 µM (inactive)
- GI50 (PC-3): > 100 µM (inactive)

Structure (SMILES): CCOP(=O)(OCC)C(Nc1ccc(Br)cc1)c1cccc([N+](=O)[O-])c1 (stereo not given)
- GI50 (Hs-578T): 21.3 µM (inactive)

Structure (SMILES): CN(C)/N=N/c1nc2c(c(=O)n(C)c(=O)n2C)n1CC(O)CO (stereo not given)
- GI50 (BT-549): > 100 µM (inactive)
- GI50 (Hs-578T): > 100 µM (inactive)
- GI50 (PC-3): > 100 µM (inactive)

Structure (SMILES): CCOC(=O)c1sc2ncnc(N)c2c1C
- GI50 (BT-549): > 100 µM (inactive)
- GI50 (Hs-578T): 44.1 µM (inactive)
- GI50 (PC-3): 68.5 µM (inactive)

Structure (SMILES): N#Cc1c(Cl)nc2ccccc2c1N=[N+]=[N-]
- GI50 (BT-549): 1.8 µM (inactive)
- GI50 (Hs-578T): 5.81 µM (inactive)
- GI50 (PC-3): 2.65 µM (inactive)

Structure (SMILES): CCOC(=O)CSC1NC(C(=O)OC)CC1OC (stereo not given)
- GI50 (BT-549): > 100 µM (inactive)
- GI50 (Hs-578T): > 100 µM (inactive)
- GI50 (PC-3): > 100 µM (inactive)

Structure (SMILES): CNc1ncc(-c2nnnn2-c2ccccc2)c(CN(C)C)n1
- GI50 (BT-549): > 100 µM (inactive)
- GI50 (Hs-578T): > 100 µM (inactive)
- GI50 (PC-3): > 100 µM (inactive)

Structure (SMILES): COc1ccc(-c2cc(-c3ccc(Nc4ccnc5cc(C(F)(F)F)ccc45)cc3)[nH]c(=O)c2C#N)cc1
- GI50 (BT-549): > 52 µM (inactive)
- GI50 (Hs-578T): 10.1 µM (inactive)
- GI50 (PC-3): > 100 µM (inactive)

Structure (SMILES): Nc1c(-c2nc3ccccc3s2)c2ccc([N+](=O)[O-])cc2c(=O)n1-c1cccc(C(=O)O)c1
- GI50 (BT-549): 20.1 µM (inactive)
- GI50 (Hs-578T): 27.5 µM (inactive)
- GI50 (PC-3): 29.9 µM (inactive)

Structure (SMILES): Cn1c(N)c(Cc2ccc(Cl)cc2)c(=O)[nH]c1=O
- GI50 (BT-549): > 100 µM (inactive)
- GI50 (Hs-578T): > 100 µM (inactive)

Structure (SMILES): O=[N+]([O-])c1ccc(C(c2c[nH]c3ccccc23)c2c[nH]c3ccccc23)cc1
- GI50 (BT-549): 4.97 µM (inactive)
- GI50 (Hs-578T): 19 µM (inactive)
- GI50 (PC-3): 12.3 µM (inactive)

Structure (SMILES): Cc1ccc(S(=O)(=O)NNC(=O)Nc2ccc([N+](=O)[O-])cc2)cc1
- GI50 (BT-549): 78.9 µM (inactive)
- GI50 (Hs-578T): 34.6 µM (inactive)
- GI50 (PC-3): 26.1 µM (inactive)

Structure (SMILES): CCCCCC1=C/C(=C\c2[nH]c(-c3ccc[nH]3)cc2OC)N=C1C
- GI50 (BT-549): 0.0324 µM (active)
- GI50 (Hs-578T): < 0.01 µM (active)
- GI50 (PC-3): < 0.01 µM (active)

Structure (SMILES): CCOP(=O)(OCC)/C(C#N)=C/c1ccc(-c2cc(C(F)(F)F)cc(C(F)(F)F)c2)o1
- GI50 (BT-549): 25.7 µM (inactive)
- GI50 (Hs-578T): 25.1 µM (inactive)
- GI50 (PC-3): 11.7 µM (inactive)

Structure (SMILES): COC(=O)[C@H](Cc1c[nH]c2ccccc12)NC(=O)c1ccc(CNC(=O)/C(C)=C/c2ccccc2)cc1
- GI50 (BT-549): 28.1 µM (inactive)
- GI50 (PC-3): 20.7 µM (inactive)

Structure (SMILES): N#C[BH2-][n+]1ccc(C(=O)NNCc2cccc(C(F)(F)F)c2)cc1
- GI50 (BT-549): 14.3 µM (inactive)
- GI50 (Hs-578T): 4.59 µM (inactive)
- GI50 (PC-3): 13.8 µM (inactive)

Structure (SMILES): CCCNC1=C2CC(C)CC(OC)[C@@H](O)[C@H](C)/C=C(\C)C(OC(N)=O)C(OC)/C=C\C=C(/C)C(=O)NC(=CC1=O)C2=O (stereo not given in full)
- GI50 (BT-549): 12.3 µM (inactive)
- GI50 (Hs-578T): 3.03 µM (inactive)
- GI50 (PC-3): 0.411 µM (active)

Structure (SMILES): Cc1cc2c(cc1O)CC[C@@H]1[C@@H]2CC[C@]2(C)[C@@H](O)CC[C@@H]12
- GI50 (BT-549): 6.27 µM (inactive)
- GI50 (Hs-578T): 2.51 µM (inactive)
- GI50 (PC-3): 11.1 µM (inactive)

Structure (SMILES): CCN(CC)CC1CCCCN1CC(=O)N1c2ccccc2C(=O)Nc2cccnc21 (stereo not given) [OTENZEPAD]
- GI50 (Hs-578T): 93.1 µM (inactive)
- GI50 (PC-3): 36.8 µM (inactive)
